Test results taken from PubChem BioAssay AID2060493 (Molecular Pharmacology Branch, DTP, NCI, 2025).

System: 616215-338-R-J1-PDC tumor spheroids, viability
Experiment: Anticancer human tumor 616215-338-R-J1-PDC patient-derived colon adenocarcinoma cell line growth inhibition [GQUAD]
Conditions: spheroids with HUVEC and MSC; for IC50: curve of first compound; for viability, T/C: stronger effect = lower value
Method in brief: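 Tumor cells were grown as complex spheroids with HUVEC endothelial cells and mesenchymal stem cells as stroma. G-quadruplex stabilizers were combined with targeted agents over half-log dilutions from near the clinical Cmax, or from 10 microM.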

[1] = second compound 0.0316 µM, first compound 0.0316 µM
[2] = second compound 0.0316 µM, first compound 0.1 µM
[3] = second compound 0.0316 µM, first compound 0.316 µM
[4] = second compound 0.0316 µM, first compound 1 µM
[5] = second compound 0.0316 µM, first compound 3.16 µM
[6] = second compound 0.0316 µM, first compound 10 µM
[7] = second compound 0.1 µM, first compound 0.0316 µM
[8] = second compound 0.1 µM, first compound 0.1 µM
[9] = second compound 0.1 µM, first compound 0.316 µM
[10] = second compound 0.1 µM, first compound 1 µM
[11] = second compound 0.1 µM, first compound 3.16 µM
[12] = second compound 0.1 µM, first compound 10 µM
[13] = second compound 0.316 µM, first compound 0.0316 µM
[14] = second compound 0.316 µM, first compound 0.1 µM
[15] = second compound 0.316 µM, first compound 0.316 µM
[16] = second compound 0.316 µM, first compound 1 µM
[17] = second compound 0.316 µM, first compound 3.16 µM
[18] = second compound 0.316 µM, first compound 10 µM
[19] = second compound 1 µM, first compound 0.0316 µM
[20] = second compound 1 µM, first compound 0.1 µM
[21] = second compound 1 µM, first compound 0.316 µM
[22] = second compound 1 µM, first compound 1 µM
[23] = second compound 1 µM, first compound 3.16 µM
[24] = second compound 1 µM, first compound 10 µM
[25] = second compound 3.16 µM, first compound 0.0316 µM
[26] = second compound 3.16 µM, first compound 0.1 µM
[27] = second compound 3.16 µM, first compound 0.316 µM
[28] = second compound 3.16 µM, first compound 1 µM
[29] = second compound 3.16 µM, first compound 3.16 µM
[30] = second compound 3.16 µM, first compound 10 µM
[31] = second compound 10 µM, first compound 0.0316 µM
[32] = second compound 10 µM, first compound 0.1 µM
[33] = second compound 10 µM, first compound 0.316 µM
[34] = second compound 10 µM, first compound 1 µM
[35] = second compound 10 µM, first compound 3.16 µM
[36] = second compound 10 µM, first compound 10 µM
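Further: spheroids exposed to agents for 7 days before readout.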
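Wherever viability, T/C is given: percent viability relative to DMSO vehicle control wells taken as 100%.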

Compound: COc1ccc([C@@H](O)c2cc(-c3ncnc4cc(N5CCOCC5)ccc34)c(F)cc2Cl)nn1 + Cc1[nH]c2ccc(F)cc2c1-c1nc2c3cccnc3c3ncccc3c2[nH]1
- IC50 (second compound 0.0316 µM): > 10000 nM
- IC50 (second compound 0.1 µM): > 10000 nM
- IC50 (second compound 0.316 µM): > 10000 nM
- IC50 (second compound 1 µM): > 10000 nM
- IC50 (second compound 3.16 µM): > 10000 nM
- IC50 (second compound 10 µM): 8730 nM
- viability, T/C [1]: 106%
- viability, T/C [2]: 108%
- viability, T/C [3]: 101%
- viability, T/C [4]: 105%
- viability, T/C [5]: 106%
- viability, T/C [6]: 53.6%
- viability, T/C [7]: 108%
- viability, T/C [8]: 104%
- viability, T/C [9]: 110%
- viability, T/C [10]: 104%
- viability, T/C [11]: 104%
- viability, T/C [12]: 58.4%
- viability, T/C [13]: 104%
- viability, T/C [14]: 111%
- viability, T/C [15]: 111%
- viability, T/C [16]: 111%
- viability, T/C [17]: 111%
- viability, T/C [18]: 61%
- viability, T/C [19]: 101%
- viability, T/C [20]: 99.2%
- viability, T/C [21]: 104%
- viability, T/C [22]: 96.8%
- viability, T/C [23]: 90.2%
- viability, T/C [24]: 72.5%
- viability, T/C [25]: 96.7%
- viability, T/C [26]: 99.2%
- viability, T/C [27]: 90%
- viability, T/C [28]: 97.8%
- viability, T/C [29]: 97.4%
- viability, T/C [30]: 51.2%
- viability, T/C [31]: 90.3%
- viability, T/C [32]: 101%
- viability, T/C [33]: 97.4%
- viability, T/C [34]: 117%
- viability, T/C [35]: 100%
- viability, T/C [36]: 43.2%

Compound: O=C(NO)c1cnc(N2CCN(S(=O)(=O)c3ccc4ccccc4c3)CC2)nc1 + CN(C)c1ccc(Nc2c3ccc(NC(=O)CCN4CCCC4)cc3nc3cc(NC(=O)CCN4CCCC4)ccc23)cc1
- IC50 (second compound 0.0316 µM): 324 nM
- IC50 (second compound 0.1 µM): 322 nM
- IC50 (second compound 0.316 µM): 255 nM
- IC50 (second compound 1 µM): 312 nM
- IC50 (second compound 3.16 µM): 293 nM
- IC50 (second compound 10 µM): 220 nM
- viability, T/C [1]: 104%
- viability, T/C [2]: 97.5%
- viability, T/C [3]: 51.4%
- viability, T/C [4]: 1.08%
- viability, T/C [5]: 0.1%
- viability, T/C [6]: 0.1%
- viability, T/C [7]: 105%
- viability, T/C [8]: 107%
- viability, T/C [9]: 50.8%
- viability, T/C [10]: 0.65%
- viability, T/C [11]: 0.04%
- viability, T/C [12]: 0.07%
- viability, T/C [13]: 99.6%
- viability, T/C [14]: 103%
- viability, T/C [15]: 38.2%
- viability, T/C [16]: 0.54%
- viability, T/C [17]: 0.02%
- viability, T/C [18]: 0.06%
- viability, T/C [19]: 96.5%
- viability, T/C [20]: 98.1%
- viability, T/C [21]: 49.5%
- viability, T/C [22]: 0.3%
- viability, T/C [23]: 0.03%
- viability, T/C [24]: 0.07%
- viability, T/C [25]: 89.9%
- viability, T/C [26]: 93.7%
- viability, T/C [27]: 47%
- viability, T/C [28]: 0.25%
- viability, T/C [29]: 0.07%
- viability, T/C [30]: 0.1%
- viability, T/C [31]: 101%
- viability, T/C [32]: 80.5%
- viability, T/C [33]: 37.7%
- viability, T/C [34]: 0.24%
- viability, T/C [35]: 0.16%
- viability, T/C [36]: 0.17%

Compound: Nc1ccn(C2OC(CO)C(O)C2(F)F)c(=O)n1 (stereo not given) + Cc1[nH]c2ccc(F)cc2c1-c1nc2c3cccnc3c3ncccc3c2[nH]1
- IC50 (second compound 0.0316 µM): < 31.6 nM
- IC50 (second compound 0.1 µM): 33.6 nM
- IC50 (second compound 0.316 µM): < 31.6 nM
- IC50 (second compound 1 µM): < 31.6 nM
- IC50 (second compound 3.16 µM): < 31.6 nM
- IC50 (second compound 10 µM): < 31.6 nM
- viability, T/C [1]: 39%
- viability, T/C [2]: 26.1%
- viability, T/C [3]: 19.7%
- viability, T/C [4]: 13.7%
- viability, T/C [5]: 14%
- viability, T/C [6]: 16.1%
- viability, T/C [7]: 51.6%
- viability, T/C [8]: 20.2%
- viability, T/C [9]: 13.4%
- viability, T/C [10]: 12.9%
- viability, T/C [11]: 16.2%
- viability, T/C [12]: 17.1%
- viability, T/C [13]: 43.9%
- viability, T/C [14]: 23.8%
- viability, T/C [15]: 14.6%
- viability, T/C [16]: 13.9%
- viability, T/C [17]: 16%
- viability, T/C [18]: 13.6%
- viability, T/C [19]: 39.2%
- viability, T/C [20]: 31.1%
- viability, T/C [21]: 14.8%
- viability, T/C [22]: 11.8%
- viability, T/C [23]: 13.4%
- viability, T/C [24]: 13.8%
- viability, T/C [25]: 29.9%
- viability, T/C [26]: 22%
- viability, T/C [27]: 18.2%
- viability, T/C [28]: 13.8%
- viability, T/C [29]: 11%
- viability, T/C [30]: 14.6%
- viability, T/C [31]: 38.7%
- viability, T/C [32]: 17.2%
- viability, T/C [33]: 12.4%
- viability, T/C [34]: 14%
- viability, T/C [35]: 13.8%
- viability, T/C [36]: 13.8%

Compound: C=CCn1c(=O)c2cnc(Nc3ccc(N4CCN(C)CC4)cc3)nc2n1-c1cccc(C(C)(C)O)n1 + Cc1[nH]c2ccc(F)cc2c1-c1nc2c3cccnc3c3ncccc3c2[nH]1
- IC50 (second compound 0.0316 µM): 330 nM
- IC50 (second compound 0.1 µM): 352 nM
- IC50 (second compound 0.316 µM): 315 nM
- IC50 (second compound 1 µM): 342 nM
- IC50 (second compound 3.16 µM): 256 nM
- IC50 (second compound 10 µM): 227 nM
- viability, T/C [1]: 95.5%
- viability, T/C [2]: 90.1%
- viability, T/C [3]: 48.3%
- viability, T/C [4]: 25.4%
- viability, T/C [5]: 12.4%
- viability, T/C [6]: 12.2%
- viability, T/C [7]: 97.4%
- viability, T/C [8]: 99.9%
- viability, T/C [9]: 50.6%
- viability, T/C [10]: 28.4%
- viability, T/C [11]: 17.9%
- viability, T/C [12]: 11.9%
- viability, T/C [13]: 106%
- viability, T/C [14]: 99.6%
- viability, T/C [15]: 47.5%
- viability, T/C [16]: 25.4%
- viability, T/C [17]: 12.9%
- viability, T/C [18]: 12.4%
- viability, T/C [19]: 103%
- viability, T/C [20]: 104%
- viability, T/C [21]: 52%
- viability, T/C [22]: 18.6%
- viability, T/C [23]: 14.2%
- viability, T/C [24]: 9.69%
- viability, T/C [25]: 98.4%
- viability, T/C [26]: 87.7%
- viability, T/C [27]: 40.9%
- viability, T/C [28]: 15.8%
- viability, T/C [29]: 11.1%
- viability, T/C [30]: 6.8%
- viability, T/C [31]: 95.3%
- viability, T/C [32]: 88.3%
- viability, T/C [33]: 34%
- viability, T/C [34]: 17.9%
- viability, T/C [35]: 11.2%
- viability, T/C [36]: 6.71%

Compound: C=CC(=O)N1CCN(c2nc(=O)n(-c3c(C)ccnc3C(C)C)c3nc(-c4c(O)cccc4F)c(F)cc23)C(C)C1 (stereo not given) + Cc1cnc(CNC(=O)c2c(=O)c3ccc(N4CCCN(C)CC4)nc3n3c2sc2ccccc23)cn1
- IC50 (second compound 0.0316 µM): > 10000 nM
- IC50 (second compound 0.1 µM): > 10000 nM
- IC50 (second compound 0.316 µM): 938 nM
- IC50 (second compound 1 µM): < 31.6 nM
- IC50 (second compound 3.16 µM): < 31.6 nM
- IC50 (second compound 10 µM): < 31.6 nM
- viability, T/C [1]: 106%
- viability, T/C [2]: 109%
- viability, T/C [3]: 99.1%
- viability, T/C [4]: 95.9%
- viability, T/C [5]: 89.2%
- viability, T/C [6]: 63.7%
- viability, T/C [7]: 79.8%
- viability, T/C [8]: 73.9%
- viability, T/C [9]: 43.4%
- viability, T/C [10]: 64%
- viability, T/C [11]: 94.5%
- viability, T/C [12]: 48.5%
- viability, T/C [13]: 43.1%
- viability, T/C [14]: 69.1%
- viability, T/C [15]: 62.8%
- viability, T/C [16]: 49.5%
- viability, T/C [17]: 43.8%
- viability, T/C [18]: 47.6%
- viability, T/C [19]: 30.9%
- viability, T/C [20]: 41%
- viability, T/C [21]: 38.5%
- viability, T/C [22]: 34.4%
- viability, T/C [23]: 38%
- viability, T/C [24]: 41.8%
- viability, T/C [25]: 30.6%
- viability, T/C [26]: 36.6%
- viability, T/C [27]: 32.9%
- viability, T/C [28]: 26.6%
- viability, T/C [29]: 37%
- viability, T/C [30]: 42.5%
- viability, T/C [31]: 30.9%
- viability, T/C [32]: 28.6%
- viability, T/C [33]: 26%
- viability, T/C [34]: 35.2%
- viability, T/C [35]: 34.4%
- viability, T/C [36]: 24.2%
